Measurements as given in PubChem BioAssay (NCI).
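Growth conditions: 96-well plates. Treatment: test compound, 48 hours, 5 concentrations. Analysis: linear interpolation between bracketing concentrations; unreached endpoints set to highest concentration. GI50 marks 50% less growth. TGI denotes the concentration required for complete inhibition of growth.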

Legend:
Test in all cases: inhibition of tumour cell growth, NCI panel, 48 h
[1] = system: NCI-H522 lung
[2] = system: SF-539 CNS
[3] = system: SK-MEL-28 melanoma
[4] = system: SK-OV-3 ovarian
[5] = system: HL-60(TB) leukemia
[6] = system: NCI-H226 lung
[7] = system: SW-620 colon
[8] = system: SNB-75 CNS
[9] = system: SK-MEL-5 melanoma
[10] = system: OVCAR-3 ovarian

Compound `COc1cc(OC2OC(C)C(O)C(O)C2O)cc2oc(-c3ccc(O)cc3)c(CC=C(C)C)c(=O)c12` (stereo unspecified) has a GI50 [1] of 13 µM, a TGI [1] of 39.8 µM and a GI50 [2] of 19.5 µM. It also gave a TGI [2] of 44.2 µM, a GI50 [3] of 23.4 µM and a TGI [3] of 59.6 µM. It also gave a GI50 [4] of 20.8 µM, a TGI [4] of 45.4 µM and a GI50 [5] of 3.5 µM. The TGI [5] was 16.2 µM, the GI50 [6] was 21.9 µM and the TGI [6] was 69.7 µM. The GI50 [7] was 19.7 µM, the TGI [7] was 44 µM and the GI50 [8] was 1.69 µM. It also gave a TGI [8] of 17.5 µM, a GI50 [9] of 13.6 µM and a TGI [9] of 30.9 µM. For the same compound, the GI50 [10] was 17.1 µM and the TGI [10] was 66.3 µM.
`Cc1ccc(C(=O)c2oc3ccc4c(C)cc(=O)oc4c3c2C)cc1` showed a GI50 [1] of 9.12 µM, a TGI [1] of 55.2 µM and a GI50 [2] of 1.41 µM. For the same compound, the TGI [2] was 20.1 µM, the GI50 [3] was 6.37 µM and the TGI [3] was > 100 µM. For the same compound, the GI50 [4] was 18 µM, the TGI [4] was > 100 µM and the GI50 [5] was 13.4 µM. The TGI [5] was > 100 µM, the GI50 [6] was 11.7 µM and the TGI [6] was > 100 µM. The GI50 [7] was 8.56 µM, the TGI [7] was > 100 µM and the GI50 [8] was 4.19 µM. The TGI [8] was 39.4 µM, the GI50 [9] was 2.69 µM and the TGI [9] was > 100 µM. It also gave a GI50 [10] of 14.7 µM and a TGI [10] of 54.8 µM.
With `CCC(=O)c1cn(C)c(=O)c2ccccc12` the TGI [1] was > 100 µM, the TGI [2] was > 100 µM and the TGI [3] was > 100 µM. For the same compound, the TGI [4] was > 100 µM, the TGI [5] was > 100 µM and the TGI [6] was > 100 µM. For the same compound, the TGI [7] was > 100 µM, the TGI [8] was > 100 µM and the TGI [9] was > 100 µM. For the same compound, the TGI [10] was > 100 µM.
Work on `Clc1nc(Oc2ccccc2)nc(-c2cn(-c3ccccc3)c3ccccc23)n1` yielded a GI50 [1] of 1.88 µM, a TGI [1] of 3.88 µM and a GI50 [2] of 16.1 µM. For the same compound, the TGI [2] was 30 µM, the GI50 [3] was 3.92 µM and the TGI [3] was 12.1 µM. For the same compound, the GI50 [4] was 18.9 µM, the TGI [4] was 40.3 µM and the GI50 [5] was 0.773 µM. For the same compound, the GI50 [6] was 33.5 µM, the TGI [6] was > 62.2 µM and the GI50 [7] was 2.92 µM. It also gave a TGI [7] of 9.24 µM, a GI50 [8] of 13.7 µM and a TGI [8] of 26.6 µM. For the same compound, the GI50 [9] was 14.3 µM, the TGI [9] was 30.5 µM and the GI50 [10] was 3.37 µM. It also gave a TGI [10] of 10.2 µM.
With `CC(=O)CC1CCC(=O)CCC(=O)OC(CC(C)=O)CCC(=O)CCC(=O)O1` (stereo unspecified) the TGI [1] was > 100 µM, the TGI [2] was > 100 µM and the TGI [3] was > 100 µM. For the same compound, the TGI [4] was > 100 µM, the TGI [5] was > 100 µM and the TGI [6] was > 100 µM. The TGI [7] was > 100 µM, the TGI [8] was > 100 µM and the TGI [9] was > 100 µM. The TGI [10] was > 100 µM.
With `COc1ccc(-c2c(C3=NCCN3)nnn2-c2ccccc2)cc1` the TGI [1] was > 100 µM, the TGI [2] was > 100 µM and the TGI [3] was > 100 µM. For the same compound, the TGI [4] was > 100 µM, the TGI [5] was > 100 µM and the TGI [6] was > 100 µM. For the same compound, the TGI [7] was > 100 µM, the TGI [8] was > 100 µM and the TGI [9] was > 100 µM. For the same compound, the TGI [10] was > 100 µM.
`CN1CCN(CCSC2Cc3cc(Cl)ccc3Sc3ccccc32)CC1` (stereo unspecified) showed a TGI [1] of 12.8 µM, a TGI [2] of 11.7 µM and a TGI [3] of 3.5 µM. It also gave a TGI [4] of 32.5 µM, a TGI [5] of 5.46 µM and a TGI [6] of 31.4 µM. It also gave a TGI [7] of 7.21 µM, a TGI [8] of 15.7 µM and a TGI [9] of 7.88 µM. For the same compound, the TGI [10] was 16.5 µM.
`COc1cc(-c2cc(=O)c3cc4c(cc3[nH]2)OCO4)cc(OC)c1OC` was tested, and the TGI [1] was > 100 µM, the TGI [2] was > 100 µM and the TGI [3] was > 100 µM. The TGI [4] was > 100 µM, the TGI [5] was > 100 µM and the GI50 [6] was > 100 µM. The TGI [6] was > 100 µM, the TGI [7] was > 100 µM and the TGI [8] was > 100 µM. The TGI [9] was > 100 µM, the GI50 [10] was > 100 µM and the TGI [10] was > 100 µM.
